Source: patent US8361998B2, “Compounds and their use as IKACh blockers” (AstraZeneca AB, priority 2010, dated 2013)

molecular target: T1, human cardiac ion channel proteins hKir3.1/Kir3.4 (Homo sapiens, UniProt P48544+P48549); assay: Atomic Absorption Screening (AAS) Rb efflux assay of hKir3.1/Kir3.4 block, carbachol/high K+ stimulated, 10-pt or 7-pt CR; type: cell-based; conditions: 7-pt CR (0.037 to 27 μmol/L), AAS Rb efflux, CHO-K1 cells expressing hKir3.1/Kir3.4; mean of >3 replicates; read-out: IKACh IC50 7-pt CR, AAS
T1 construct: expressed in transfected cells
T1 sequence (P48549 1-501): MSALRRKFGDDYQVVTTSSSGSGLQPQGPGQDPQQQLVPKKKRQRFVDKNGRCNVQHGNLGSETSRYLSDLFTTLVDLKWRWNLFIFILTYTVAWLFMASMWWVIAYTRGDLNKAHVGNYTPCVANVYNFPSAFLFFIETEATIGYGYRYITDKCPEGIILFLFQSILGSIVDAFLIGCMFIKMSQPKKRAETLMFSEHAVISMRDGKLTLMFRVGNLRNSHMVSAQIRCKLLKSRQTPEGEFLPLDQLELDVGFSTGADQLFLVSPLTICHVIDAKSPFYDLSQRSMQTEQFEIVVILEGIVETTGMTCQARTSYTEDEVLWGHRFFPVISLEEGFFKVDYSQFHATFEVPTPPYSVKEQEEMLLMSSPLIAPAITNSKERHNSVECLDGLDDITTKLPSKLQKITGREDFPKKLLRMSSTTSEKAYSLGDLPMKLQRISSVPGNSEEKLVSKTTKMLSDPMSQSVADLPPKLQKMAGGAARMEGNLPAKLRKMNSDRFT
T1 sequence (P48544 1-419): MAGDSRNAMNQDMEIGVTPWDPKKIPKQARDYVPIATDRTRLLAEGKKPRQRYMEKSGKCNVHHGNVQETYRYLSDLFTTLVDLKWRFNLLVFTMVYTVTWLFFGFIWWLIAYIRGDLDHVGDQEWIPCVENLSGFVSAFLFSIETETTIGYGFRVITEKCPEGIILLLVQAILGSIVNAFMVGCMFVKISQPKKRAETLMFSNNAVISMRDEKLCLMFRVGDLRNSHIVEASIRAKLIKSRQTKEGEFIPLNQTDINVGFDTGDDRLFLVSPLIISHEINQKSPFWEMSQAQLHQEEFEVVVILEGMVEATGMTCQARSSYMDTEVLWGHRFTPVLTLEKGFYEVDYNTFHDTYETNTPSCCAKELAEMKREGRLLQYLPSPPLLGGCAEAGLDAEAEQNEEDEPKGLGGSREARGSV
In short: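 CHO-K1 cells stably co-expressing human Kir3.1/Kir3.4 were Rb-loaded for 3 h at 37° C, preincubated with compound 5 min at RT, then stimulated 10 min with 10 μM carbachol plus 20 mM KCl (final). Supernatant Rb was measured by atomic absorption. Compounds ran at 0.003–67 μmol/L (10-pt) or 0.037–27 μmol/L (7-pt), threefold dilutions; IC50s are means of >4 or >3 replicates respectively.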

Row | Compound | IC50
1 | Cc1c(F)cccc1C(=O)N(C)[C@H](CN1CC[C@H](O)C1)C(C)C [Example 16.45, 3-Fluoro-N—((S)-1-((S)-3-hydroxypyrrolidin-1-yl)-3-methylbutan-2-yl)-N,2-dimethylbenzamide] | 16 µM
2 | CC(C)[C@@H](CN1CCCCC1)N(C)C(=O)c1cccc(Br)c1 [Example 16.35, (S)-3-Bromo-N-methyl-N-(3-methyl-1-(piperidin-1-yl)butan-2-yl)benzamide] | 12 µM
3 | CC(C)[C@@H](CN1CC[C@H](O)C1)N(C)C(=O)c1cc(F)cc(C(F)(F)F)c1 [Example 16.44, 3-Fluoro-N-[(1S)-1-{[(3S)-3-hydroxypyrrolidin-1-yl]methyl}-2-methylpropyl]-N-methyl-5-(trifluoromethyl)benzamide] | 8.4 µM
4 | CC(C)[C@@H](CN1CCCC1)N(C)C(=O)c1ccccc1C(F)(F)F [Example 16.20, (S)—N-Methyl-N-(3-methyl-1-(pyrrolidin-1-yl)butan-2-yl)-2-(trifluoromethyl)benzamide] | 14 µM

same assay, conditions: 10-pt CR (0.003 to 67 μmol/L), AAS Rb efflux, CHO-K1 cells expressing hKir3.1/Kir3.4; mean of >4 replicates; read-out: IKACh IC50 10-pt CR, AAS

Row | IC50 | Compound
5 | 0.41 µM | CN(C(=O)c1ccc(C#N)cc1)[C@H](CN1CC(O)C1)C1CCCCC1 [Example 36.1, 4-cyano-N-[(1S)-1-cyclohexyl-2-(3-hydroxyazetidin-1-yl)ethyl]-N-methylbenzamide]
6 | 0.47 µM | COc1cc(Cl)ccc1C(=O)N(C)[C@@H](CC(C)C)CN1CC(O)C1 [Example 38.7, 4-Chloro-N-[(2S)-1-(3-hydroxyazetidin-1-yl)-4-methylpentan-2-yl]-2-methoxy-N-methylbenzamide]
7 | 2.9 µM | CC(C)[C@@H](CN1CCC1)N(C)C(=O)c1ccc(F)c(Cl)c1 [Example 1.12, (S)-N-(1-(Azetidin-1-yl)-3-methylbutan-2-yl)-3-chloro-4-fluoro-N-methylbenzamide]
8 | 9.8 µM | CN(C(=O)c1ccc(F)cc1)[C@H](CN1CC(O)C1)C1CC1 [Example 7.4, (S)-N-(1-Cyclopropyl-2-(3-hydroxyazetidin-1-yl)ethyl)-4-fluoro-N-methylbenzamide]
9 | 0.66 µM | Cc1cc(C(=O)N(C)[C@@H](CN2CC(O)C2)C2CCC2)ccc1F [Example 35.4, N-[(1R)-1-Cyclobutyl-2-(3-hydroxyazetidin-1-yl)ethyl]-4-fluoro-N,3-dimethylbenzamide]
10 | 1.3 µM | COC1CCN(C[C@H](C(C)C)N(C)C(=O)c2ccc(Cl)cc2)CC1 [Example 3.7, (S)-4-Chloro-N-(1-(4-methoxypiperidin-1-yl)-3-methylbutan-2-yl)-N-methylbenzamide]
11 | 15 µM | CN(C(=O)c1ccc(F)cc1F)[C@@H](CN1CC(O)C1)C1CCC1 [Example 35.10, N-[(1R)-1-Cyclobutyl-2-(3-hydroxyazetidin-1-yl)ethyl]-2,4-difluoro-N-methylbenzamide]
12 | 16 µM | COc1ccc(C(=O)N(C)[C@@H](CN2CC(O)C2)C2CCC2)c(F)c1 [Example 35.12, N-[(1R)-1-Cyclobutyl-2-(3-hydroxyazetidin-1-yl)ethyl]-2-fluoro-4-methoxy-N-methylbenzamide]
13 | 6.1 µM | Cc1cc(C(=O)N(C)[C@@H](C)CN2CC(O)C2)ccc1Cl [Example 40.4, (S)-4-Chloro-N-(1-(3-hydroxyazetidin-1-yl)propan-2-yl)-N,3-dimethylbenzamide]
14 | 19 µM | Cc1ccc(C(=O)N(C)[C@H](CN2CCC(F)(F)C2)C(C)C)cc1C [Example 21, (S)—N-(1-(3,3-Difluoropyrrolidin-1-yl)-3-methylbutan-2-yl)-N,3,4-trimethylbenzamide]
15 | 2.7 µM | CCC[C@@H](CN1C[C@H](O)[C@H]1C)N(C)C(=O)c1ccc(F)c(F)c1 (relative stereo) [Example 43.3, 3,4-Difluoro-N—((S)-1-((2R*,3S*)-3-hydroxy-2-methylazetidin-1-yl)pentan-2-yl)-N-methylbenzamide]
16 | 4.3 µM | CCC[C@@H](CN1CC(O)C1)N(C)C(=O)c1cccc(C)c1 [Example 8.10, (S)-N-(1-(3-Hydroxyazetidin-1-yl)pentan-2-yl)-N,3-dimethyl-benzamide]
17 | 9.7 µM | C[C@@H](CN1CC(O)C1)N(C)C(=O)c1ccc(Cl)cc1 [Example 40.1, (S)-4-Chloro-N-(1-(3-hydroxyazetidin-1-yl)propan-2-yl)-N-methylbenzamide]
18 | 9.1 µM | CCC[C@@H](CN1C[C@H](O)[C@H]1C)N(C)C(=O)c1ccc(F)cc1 (relative stereo) [Example 43.2, 4-Fluoro-N—((S)-1-((2R*,3S*)-3-hydroxy-2-methylazetidin-1-yl)pentan-2-yl)-N-methylbenzamide]
19 | 3.4 µM | CN(C(=O)c1ccc(Cl)cc1)[C@@H](CN1CC(O)C1)C1CCC1 [Example 35.1, 4-Chloro-N-[(1R)-1-cyclobutyl-2-(3-hydroxyazetidin-1-yl)ethyl]-N-methylbenzamide]
20 | 0.77 µM | CC(C)C[C@@H](CN1CC(O)C1)N(C)C(=O)c1cccc(C(F)F)c1 [Example 38.4, 3-(Difluoromethyl)-N-[(2S)-1-(3-hydroxyazetidin-1-yl)-4-methylpentan-2-yl]-N-methylbenzamide]
21 | 0.81 µM | CCC[C@@H](CN1CCC(O)CC1)N(C)C(=O)c1ccc(Cl)cc1 [Example 44, (S)-4-Chloro-N-(1-(4-hydroxypiperidin-1-yl)pentan-2-yl)-N-methylbenzamide]
22 | 0.81 µM | Cc1ccc(F)c(C(=O)N(C)[C@H](CN2CC(O)C2)C2CCC2)c1 [Example 39.10, (S)—N-(1-Cyclobutyl-2-(3-hydroxyazetidin-1-yl)ethyl)-2-fluoro-N,5-dimethylbenzamide]

Row | Compound | IC50
23 | CC[C@@H](CN1CCCC1)N(C)C(=O)c1ccc(Cl)c(Cl)c1 [Example 17.2, (S)-3,4-Dichloro-N-methyl-N-(1-(pyrrolidin-1-yl)butan-2-yl)benzamide] | 1.4 µM
24 | Cc1ccc(C(=O)N(C)[C@H](CN2CCCC2)C2CC2)cc1C [Example 13.2, (S)-N-(1-Cyclopropyl-2-(pyrrolidin-1-yl)ethyl)-N,3,4-trimethyl-benzamide] | 3.9 µM
25 | CCC[C@@H](CN1CC(OC)C1)N(C)C(=O)c1ccc(Cl)cc1 [Example 31.2, (S)-4-Chloro-N-(1-(3-methoxyazetidin-1-yl)pentan-2-yl)-N-methylbenzamide] | 5.9 µM

same assay, conditions: printed as IC50 >67 μM in the 10-pt CR assay or IC50 >27 μM in the 7-pt CR assay; assay format per compound not stated; read-out: IC50

Row | IC50 | Compound
26 | > 27 µM | CC(C)[C@@H](CN1C[C@@H](O)[C@H](O)C1)N(C)C(=O)c1ccc(C#N)cc1 [4-Cyano-N-((S)-1-((3R,4R)-3,4-dihydroxypyrrolidin-1-yl)-3-methylbutan-2-yl)-N-methylbenzamide]
27 | > 27 µM | CC(C)[C@@H](CN1CC(O)C1)N(C)C(=O)c1ccc(F)c(CO)c1 [4-Fluoro-N-[(1S)-1-[(3-hydroxyazetidin-1-yl)methyl]-2-methyl-propyl]-3-(hydroxymethyl)-N-methyl-benzamide]
28 | > 27 µM | COc1cccc(C(=O)N(C)[C@H](CN2CCCC(F)(F)C2)C(C)C)c1 [N-[(1S)-1-[(3,3-Difluoro-1-piperidyl)methyl]-2-methyl-propyl]-3-methoxy-N-methyl-benzamide]
29 | > 27 µM | Cc1cc(C(=O)N(C)[C@H](CN2CCC(F)(F)C2)C(C)C)ccc1F [(S)-N-(1-(3,3-Difluoropyrrolidin-1-yl)-3-methylbutan-2-yl)-4-fluoro-N,3-dimethylbenzamide]
30 | > 27 µM | CC(C)[C@@H](CCN1CCCC1)N(C)C(=O)c1ccc(Cl)cc1F [4-Chloro-2-fluoro-N-methyl-N-[(1R)-2-methyl-1-(2-pyrrolidin-1-ylethyl)propyl]benzamide]
